Each compound was assayed against T1, SOS1 (Homo sapiens, UniProt Q07889) (assay: SOS-catalyzed nucleotide exchange assay (HTRF, SOS1-mediated GTP loading of KRAS G12D)). Settings: GST-KRAS G12D, HIS-SOS1cat, IC50 class.
T1 construct: adding equal amounts of HIS—SOS1cat (160 nM; Cytoskeleton, US); His (N); purchased Cytoskeleton, US
T1 sequence (Q07889 564-1049 limits assumed): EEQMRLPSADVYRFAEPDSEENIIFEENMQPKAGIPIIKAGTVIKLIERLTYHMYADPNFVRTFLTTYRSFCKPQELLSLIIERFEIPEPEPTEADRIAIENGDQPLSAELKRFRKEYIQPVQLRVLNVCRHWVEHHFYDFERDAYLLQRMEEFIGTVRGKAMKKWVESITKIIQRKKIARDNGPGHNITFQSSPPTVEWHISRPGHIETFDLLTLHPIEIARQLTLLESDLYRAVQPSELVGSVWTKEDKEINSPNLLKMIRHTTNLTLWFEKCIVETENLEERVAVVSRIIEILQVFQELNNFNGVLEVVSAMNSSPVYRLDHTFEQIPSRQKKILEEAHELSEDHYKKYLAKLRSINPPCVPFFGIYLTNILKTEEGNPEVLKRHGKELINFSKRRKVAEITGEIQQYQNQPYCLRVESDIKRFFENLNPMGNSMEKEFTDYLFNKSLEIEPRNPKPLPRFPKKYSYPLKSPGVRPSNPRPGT
Format: biochemical
Method: SOS1 activity was measured by SOS1-mediated GTP loading quantification of KRAS^G12D. GTP loaded KRAS^G12D was detected by HTRF (Homogeneous Time Resolved Fluorescence) using anti-GST terbium (Cisbio, France) as a donor and a fluorescence GTP analogue (EDA-GTP-DY-647P1, [DY-647P1 labeled 2′/3′-O-(2-aminoethyl-carbamoyl)guanosine-5′-triphosphate (Jena bioscience, Germany)]) as an acceptor.
Assay buffer was composed of 10 mM HEPES pH 7.4, 150 mM NaCl, 5 mM MgCl2, 1 mM DTT, 0.05% BSA Fraction V pH 7.0 (Sigma) and 0.0025% (v/v) Igepal (Sigma). KRAS^G12D working solution was prepared by adding equal amounts of GST-KRAS^G12D (100 nM) and anti-GST-terbium (2 nM; Cisbio, France) to the assay buffer and culturing on ice for 10 minutes. SOS1cat working solution was prepared by adding equal amounts of HIS—SOS1cat (160 nM; Cytoskeleton, US) and EDA-GTP-DY-647P1 (200 nM; Jena bioscience, Germany) to the assay buffer. Control solution was prepared by adding equal volumes of EDA-GTP-DY-647P1 and the assay buffer for normalization control to exclude GEF-independent GTP loading and background signals. In order to induce a reaction, 5 μL of the SOS1cat working solution or the control solution was injected into each well. 5 μL of a compound having various concentrations from 128 pM to 10 μM was added to wells containing the SOS1cat working solution and incubated at room temperature for 10 minutes to bind to SOS1.
10 μL of the KRAS^G12D solution was added to each well and incubated for 30 minutes at room temperature while shaking. HTRF was measured using a Thermo Varioskan (excitation 334 nm, emission 665 nm). The IC50 of each inhibitor was analyzed using Graphad Prism.

**Q.** For `C[C@@H](NC(=O)c1ccc(=O)n(-c2ccc(-c3ccccc3)cc2)n1)c1cc(N)cc(C(F)(F)F)c1` [Example 24], which IC50 is on record?
**A.** Its IC50 is 1 to 10 µM.

**Q.** Which IC50 does the source give for `C[C@@H](NC(=O)c1ccc(=O)n(-c2cccc(-c3ccnn3C)c2)c1)c1cccc(C(F)(F)CO)c1F` [Example 78, N-[(1R)-1-[3-(1,1-difluoro-2-hydroxyethyl)-2-fluorophenyl]ethyl]-1-[3-(1-methyl-1H-pyrazol-5-yl)phenyl]-6-oxo-1,6-dihydropyridine-3-carboxamide] here?
**A.** Its IC50 is < 1 µM.

These compounds were tested against T2, KRAS^G12C::SOS1 (Homo sapiens, UniProt Q07889) (assay: KRAS G12C::SOS1 protein-protein interaction (PPI) inhibition assay (HTRF binding kit)). Settings: max inhibitor concentration 3 μM, three replicates, IC50 class.
T2 construct: purchased CISBIO, FRANCE 64KRASG12PEH
T2 sequence (Q07889 1-1333): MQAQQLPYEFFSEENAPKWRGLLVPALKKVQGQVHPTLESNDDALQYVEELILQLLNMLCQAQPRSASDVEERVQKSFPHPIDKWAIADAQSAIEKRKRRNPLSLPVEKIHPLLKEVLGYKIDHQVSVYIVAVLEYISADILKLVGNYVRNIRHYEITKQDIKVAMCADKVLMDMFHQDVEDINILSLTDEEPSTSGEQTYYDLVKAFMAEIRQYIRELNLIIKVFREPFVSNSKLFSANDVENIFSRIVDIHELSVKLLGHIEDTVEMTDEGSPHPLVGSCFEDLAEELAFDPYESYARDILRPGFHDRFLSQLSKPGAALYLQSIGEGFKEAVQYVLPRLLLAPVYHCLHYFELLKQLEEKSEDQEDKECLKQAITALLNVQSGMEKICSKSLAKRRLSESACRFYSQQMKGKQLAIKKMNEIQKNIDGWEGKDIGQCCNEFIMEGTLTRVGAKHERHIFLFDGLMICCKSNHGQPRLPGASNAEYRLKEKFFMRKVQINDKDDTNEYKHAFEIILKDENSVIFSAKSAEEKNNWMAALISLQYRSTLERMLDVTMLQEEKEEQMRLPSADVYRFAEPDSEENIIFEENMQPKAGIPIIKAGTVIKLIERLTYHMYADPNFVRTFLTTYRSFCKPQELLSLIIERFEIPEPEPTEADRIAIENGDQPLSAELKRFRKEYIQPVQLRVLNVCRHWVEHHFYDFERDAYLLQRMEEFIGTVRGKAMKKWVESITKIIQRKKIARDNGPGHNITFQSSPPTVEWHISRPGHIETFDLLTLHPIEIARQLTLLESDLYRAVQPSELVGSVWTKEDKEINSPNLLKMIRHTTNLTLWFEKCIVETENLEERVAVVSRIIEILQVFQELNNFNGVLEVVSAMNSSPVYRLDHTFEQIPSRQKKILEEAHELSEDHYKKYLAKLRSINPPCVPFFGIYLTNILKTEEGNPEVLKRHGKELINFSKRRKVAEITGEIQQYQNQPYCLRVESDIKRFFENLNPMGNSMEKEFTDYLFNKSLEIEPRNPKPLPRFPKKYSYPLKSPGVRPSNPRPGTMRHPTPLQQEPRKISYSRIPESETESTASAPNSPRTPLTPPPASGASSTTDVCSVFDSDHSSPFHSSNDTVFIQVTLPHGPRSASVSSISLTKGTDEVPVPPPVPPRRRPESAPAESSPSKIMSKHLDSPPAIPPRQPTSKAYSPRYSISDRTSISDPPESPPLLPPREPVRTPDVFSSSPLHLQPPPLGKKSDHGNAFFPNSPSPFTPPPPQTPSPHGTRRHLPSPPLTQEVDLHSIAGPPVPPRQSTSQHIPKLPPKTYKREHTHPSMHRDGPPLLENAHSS
Method: Protein-protein interaction between SOS1 and KRAS^G12C was detected using KRAS G12C/SOS1 binding kit from CISBIO (64KRASG12PEH, CISBIO, FRANCE) according to the manufacturer's assay method. Briefly, the maximum concentration of an inhibitor sample was set to be 3 μM, and the inhibitor sample was diluted 7 times by 1/3, and samples having a total of 8 concentrations were prepared. In HTRF (Homogeneous Time-Resolved Fluorescence) exclusive 96-well low-volume white plate (66PL96005, CISBIO, FRANCE), 2 μL of an inhibitor sample prepared for each concentration, 5 μL of a mixed solution of Tag1 labeled KRAS^G12C protein and GTP diluted with the dilution solution provided by the manufacturer, and 5 μL of Tag2 labeled SOS1 protein were mixed, and added with 8 μL of a diluted solution where anti-Tag1 KRAS^G12CXL665 (HTRF acceptor) labeled antibody and anti-Tag2 SOS1 Terbium cryptate (HTRF donor) labeled antibody were mixed in an equal ratio and cultured at room temperature for 2 hours.

**Q.** Which IC50 does the source give for `C[C@@H](NC(=O)c1ccc(=O)n(-c2cccc(C(C)(C)O)c2)n1)c1cc(N)cc(C(F)(F)F)c1` [Example 171] here?
**A.** Its IC50 is < 1 µM.

**Q.** For `C[C@@H](NC(=O)c1ccc(=O)n(-c2ccncc2F)n1)c1cc(N)cc(C(F)(F)F)c1` [Example 191], which IC50 is on record?
**A.** The IC50 was < 1 µM.

**Q.** With `C[C@@H](NC(=O)c1ccc(=O)n(-c2cccc(-c3ccccc3)c2)n1)c1cc(N)cc(C(F)(F)F)c1` [Example 212] as the compound, how does the IC50 read?
**A.** Its IC50 is 1 to 10 µM.

**Q.** How did the IC50 turn out when `Cc1c([C@@H](C)NC(=O)c2ccc(=O)n(-c3ccccc3F)n2)cc(N)cc1C(F)(F)F` [Example 244, N-[(1R)-1-[5-amino-2-methyl-3-(trifluoromethyl)phenyl]ethyl]-1-(2-fluorophenyl)-6-oxo-pyridazine-3-carboxamide] was run?
**A.** The IC50 was < 1 µM.

**Q.** `C[C@@H](NC(=O)c1ccc(=O)n(-c2cccc(C(=O)O)c2)n1)c1cc(N)cc(C(F)(F)F)c1` [Example 249, 3-(3-{[(1R)-1-[3-amino-5-(trifluoromethyl)phenyl]ethyl]carbamoyl}-6-oxo-1,6-dihydropyridazin-1-yl)benzoic acid] was tested. Which IC50 did it give?
**A.** Its IC50 is < 1 µM.

**Q.** Which IC50 does the source give for `C[C@@H](NC(=O)c1ccc(=O)n(-c2ccccc2F)n1)c1ccc(Br)s1` [Example 265, N-[(1R)-1-(5-bromo-2-thienyl)ethyl]-1-(2-fluorophenyl)-6-oxo-pyridazine-3-carboxamide] here?
**A.** The IC50 was < 1 µM.

**Q.** For `CNCc1ccc(Cl)cc1-c1ccc([C@@H](C)NC(=O)c2ccc(=O)n(-c3cccnc3)c2)s1` [Example 284], which IC50 is on record?
**A.** The IC50 was < 1 µM.

**Q.** How did the IC50 turn out when `C[C@@H](NC(=O)c1ccc(=O)n(-c2cccc(-c3cnoc3)c2)n1)c1cc(N)cc(C(F)(F)F)c1` [Example 322, N-[(1R)-1-[3-amino-5-(trifluoromethyl)phenyl]ethyl]-1-(3-isoxazol-4-ylphenyl)-6-oxo-pyridazine-3-carboxamide] was run?
**A.** The IC50 was < 1 µM.

**Q.** `C[C@@H](NC(=O)c1ccc(=O)n(-c2cccc(-c3cnnn3C)c2)n1)c1cccc(C(F)(F)CO)c1F` [Example 370, N-[(1R)-1-[3-(1,1-difluoro-2-hydroxy-ethyl)-2-fluoro-phenyl]ethyl]-1-[3-(3-methyltriazol-4-yl)phenyl]-6-oxo-pyridazine-3-carboxamide] was tested. Which IC50 did it give?
**A.** The IC50 was < 1 µM.

**Q.** How did the IC50 turn out when `C[C@@H](NC(=O)c1ccc(=O)n(-c2cc(-c3cnnn3C)ccc2F)n1)c1cc(N)cc(C(F)(F)F)c1` [Example 371, N-[(1R)-1-[3-amino-5-(trifluoromethyl)phenyl]ethyl]-1-[2-fluoro-5-(3-methyltriazol-4-yl)phenyl]-6-oxo-pyridazine-3-carboxamide] was run?
**A.** Its IC50 is < 1 µM.

**Q.** With `Cc1cnnn1-c1cccc(-n2cc(C(=O)N[C@H](C)c3cc(N)cc(C(F)(F)F)c3)ccc2=O)c1` [Example 377, N-[(1R)-1-[3-amino-5-(trifluoromethyl)phenyl]ethyl]-1-[3-(5-methyltriazol-1-yl)phenyl]-6-oxo-pyridine-3-carboxamide] as the compound, how does the IC50 read?
**A.** The IC50 was < 1 µM.

**Q.** For `Cc1cnnn1-c1cccc(-n2nc(C(=O)N[C@H](C)c3cc(N)cc(C(F)(F)F)c3)ccc2=O)c1` [Example 378, N-[(1R)-1-[3-amino-5-(trifluoromethyl)phenyl]ethyl]-1-[3-(5-methyltriazol-1-yl)phenyl]-6-oxo-pyridazine-3-carboxamide], which IC50 is on record?
**A.** The IC50 was < 1 µM.

**Q.** `C[C@@H](NC(=O)c1ccc(=O)n(-c2ccc(F)c(-c3cnnn3C)c2)n1)c1cc(N)cc(C(F)(F)F)c1` [Example 389, N-[(1R)-1-[3-amino-5-(trifluoromethyl)phenyl]ethyl]-1-[4-fluoro-3-(3-methyltriazol-4-yl)phenyl]-6-oxo-pyridazine-3-carboxamide] was tested. Which IC50 did it give?
**A.** Its IC50 is < 1 µM.

**Q.** Which IC50 does the source give for `C[C@@H](NC(=O)c1ccc(=O)n(-c2ccc(F)c(-c3cnnn3C)c2)n1)c1cccc(C(F)(F)CO)c1F` [Example 390] here?
**A.** Its IC50 is < 1 µM.

**Q.** For `C[C@@H](NC(=O)c1ccc(=O)n(-c2cc(F)cc(-c3cnnn3C)c2)n1)c1cc(N)cc(C(F)(F)F)c1` [Example 391, N-[(1R)-1-[3-amino-5-(trifluoromethyl)phenyl]ethyl]-1-[3-fluoro-5-(3-methyltriazol-4-yl)phenyl]-6-oxo-pyridazine-3-carboxamide], which IC50 is on record?
**A.** Its IC50 is < 1 µM.

**Q.** With `C[C@@H](NC(=O)c1ccc(=O)n(-c2cncc(-c3cnnn3C)c2)n1)c1cc(N)cc(C(F)(F)F)c1` [Example 392, N-[(1R)-1-[3-amino-5-(trifluoromethyl)phenyl]ethyl]-1-[5-(3-methyltriazol-4-yl)-3-pyridyl]-6-oxo-pyridazine-3-carboxamide] as the compound, how does the IC50 read?
**A.** The IC50 was < 1 µM.

**Q.** With `[2H]C([2H])([2H])n1nncc1-c1cccc(-n2nc(C(=O)N[C@H](C)c3cccc(C(F)(F)CO)c3F)ccc2=O)c1` [Example 393, N-[(1R)-1-[3-(1,1-difluoro-2-hydroxy-ethyl)-2-fluoro-phenyl]ethyl]-6-oxo-1-[3-[3-(trideuteriomethyl)triazol-4-yl]phenyl]pyridazine-3-carboxamide] as the compound, how does the IC50 read?
**A.** The IC50 was < 1 µM.

Reference: US20240400518A1, “SOS1 INHIBITOR AND USE THEREOF” (KANAPH THERAPEUTICS INC., priority 2021, published 2024)
